Data taken from PubChem BioAssay (NCI).
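Dose response: 5 concentrations. Exposure: 48 h. Format: 96-well plates. Endpoint: linear interpolation; highest concentration if not reached. Here, GI50 denotes the concentration required for 50% inhibition of growth. At the TGI there is no net growth.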

Legend:
Experiment in all cases: growth of human tumour cells (NCI), 48 h
T-47D breast = system: T-47D breast
MCF7 breast = system: MCF7 breast
HT29 colon = system: HT29 colon
PC-3 prostate = system: PC-3 prostate
A549 NSCLC = system: A549 NSCLC
BT-549 breast = system: BT-549 breast
RXF 393 renal = system: RXF 393 renal
RPMI-8226 leukemia = system: RPMI-8226 leukemia
UACC-257 melanoma = system: UACC-257 melanoma
SNB-19 CNS = system: SNB-19 CNS
HOP-62 NSCLC = system: HOP-62 NSCLC
SF-539 CNS = system: SF-539 CNS
OVCAR-4 ovarian = system: OVCAR-4 ovarian
OVCAR-5 ovarian = system: OVCAR-5 ovarian
SR leukemia = system: SR leukemia
MALME-3M melanoma = system: MALME-3M melanoma
CCRF-CEM leukemia = system: CCRF-CEM leukemia
SNB-75 CNS = system: SNB-75 CNS
NCI-H460 lung = system: NCI-H460 lung
SK-MEL-5 melanoma = system: SK-MEL-5 melanoma
NCI-H23 lung = system: NCI-H23 lung
EKVX NSCLC = system: EKVX NSCLC
U251 CNS = system: U251 CNS
K-562 leukemia = system: K-562 leukemia
KM12 colon = system: KM12 colon
HS 578T breast = system: HS 578T breast
A498 renal = system: A498 renal
MDA-MB-435 = system: MDA-MB-435
SF-295 CNS = system: SF-295 CNS
SF-268 CNS = system: SF-268 CNS
ACHN renal = system: ACHN renal
LOX IMVI melanoma = system: LOX IMVI melanoma
UO-31 renal = system: UO-31 renal
HCT-116 colon = system: HCT-116 colon
M14 melanoma = system: M14 melanoma
MOLT-4 leukemia = system: MOLT-4 leukemia
COLO 205 colon = system: COLO 205 colon
HCC-2998 colon = system: HCC-2998 colon
OVCAR-3 ovarian = system: OVCAR-3 ovarian
CAKI-1 renal = system: CAKI-1 renal
SN12C renal = system: SN12C renal
786-0 renal = system: 786-0 renal
UACC-62 melanoma = system: UACC-62 melanoma
HOP-92 NSCLC = system: HOP-92 NSCLC
SK-MEL-28 melanoma = system: SK-MEL-28 melanoma
HL-60(TB) leukemia = system: HL-60(TB) leukemia
TK-10 renal = system: TK-10 renal
OVCAR-8 ovarian = system: OVCAR-8 ovarian
MDA-MB-231 breast = system: MDA-MB-231 breast
DU-145 prostate = system: DU-145 prostate
SK-MEL-2 melanoma = system: SK-MEL-2 melanoma
NCI/ADR-RES ovarian = system: NCI/ADR-RES ovarian
SW-620 colon = system: SW-620 colon
NCI-H522 lung = system: NCI-H522 lung
IGROV1 ovarian = system: IGROV1 ovarian
HCT-15 colon = system: HCT-15 colon

Compound `CO[C@H]1/C=C/[C@@](C)(O)/C=C/C(=O)O[C@H](C)[C@@H](C)CC/C=C/1C` has a GI50 (T-47D breast) of 14.1 µM, a TGI (T-47D breast) greater than 100 µM and a GI50 (MCF7 breast) of 16.5 µM. It also gave a TGI (MCF7 breast) of 56 µM, a GI50 (HT29 colon) of 19.4 µM and a TGI (HT29 colon) of 48.7 µM. The GI50 (PC-3 prostate) was 18.2 µM, the TGI (PC-3 prostate) was 53.7 µM and the GI50 (A549 NSCLC) was 23 µM. The TGI (A549 NSCLC) was greater than 100 µM, the GI50 (BT-549 breast) was 19.8 µM and the TGI (BT-549 breast) was 63.6 µM. For the same compound, the GI50 (RXF 393 renal) was 11 µM, the TGI (RXF 393 renal) was 24.5 µM and the GI50 (RPMI-8226 leukemia) was 15.5 µM. For the same compound, the TGI (RPMI-8226 leukemia) was 97.3 µM, the GI50 (UACC-257 melanoma) was 26.7 µM and the TGI (UACC-257 melanoma) was 87.3 µM. For the same compound, the GI50 (SNB-19 CNS) was 21.9 µM, the TGI (SNB-19 CNS) was 81.8 µM and the GI50 (HOP-62 NSCLC) was 16.3 µM. The TGI (HOP-62 NSCLC) was 59.2 µM, the GI50 (SF-539 CNS) was 15.2 µM and the TGI (SF-539 CNS) was 31.3 µM. It also gave a GI50 (OVCAR-4 ovarian) of 14.9 µM, a TGI (OVCAR-4 ovarian) of 76.3 µM and a GI50 (OVCAR-5 ovarian) of 17.7 µM. For the same compound, the TGI (OVCAR-5 ovarian) was 39.2 µM, the GI50 (SR leukemia) was 15 µM and the TGI (SR leukemia) was greater than 100 µM. For the same compound, the GI50 (MALME-3M melanoma) was 13.1 µM, the TGI (MALME-3M melanoma) was 37.3 µM and the GI50 (CCRF-CEM leukemia) was 10.1 µM. The TGI (CCRF-CEM leukemia) was greater than 100 µM, the GI50 (SNB-75 CNS) was 17.5 µM and the TGI (SNB-75 CNS) was 40.4 µM. The GI50 (NCI-H460 lung) was 17.4 µM, the TGI (NCI-H460 lung) was 48.6 µM and the GI50 (SK-MEL-5 melanoma) was 14 µM. For the same compound, the TGI (SK-MEL-5 melanoma) was 28.4 µM, the GI50 (NCI-H23 lung) was 14.8 µM and the TGI (NCI-H23 lung) was 32.4 µM. The GI50 (EKVX NSCLC) was 15.7 µM, the TGI (EKVX NSCLC) was 76.8 µM and the GI50 (U251 CNS) was 14.2 µM. It also gave a TGI (U251 CNS) of 40.6 µM, a GI50 (K-562 leukemia) of 15.2 µM and a TGI (K-562 leukemia) greater than 100 µM. It also gave a GI50 (KM12 colon) of 15.8 µM, a TGI (KM12 colon) of 41.2 µM and a GI50 (HS 578T breast) of 23.9 µM. The TGI (HS 578T breast) was greater than 100 µM, the GI50 (A498 renal) was 12 µM and the TGI (A498 renal) was 32 µM. For the same compound, the GI50 (MDA-MB-435) was 23.1 µM, the TGI (MDA-MB-435) was 83.1 µM and the GI50 (SF-295 CNS) was 16.5 µM. For the same compound, the TGI (SF-295 CNS) was 39.8 µM, the GI50 (SF-268 CNS) was 19.7 µM and the TGI (SF-268 CNS) was greater than 100 µM. It also gave a GI50 (ACHN renal) of 18.7 µM, a TGI (ACHN renal) of 55.9 µM and a GI50 (LOX IMVI melanoma) of 11.3 µM. It also gave a TGI (LOX IMVI melanoma) of 26 µM, a GI50 (UO-31 renal) of 8.38 µM and a TGI (UO-31 renal) of 21.1 µM. The GI50 (HCT-116 colon) was 12.9 µM, the TGI (HCT-116 colon) was 26.2 µM and the GI50 (M14 melanoma) was 15.7 µM. For the same compound, the TGI (M14 melanoma) was 43.3 µM, the GI50 (MOLT-4 leukemia) was 21.2 µM and the TGI (MOLT-4 leukemia) was 98.6 µM. It also gave a GI50 (COLO 205 colon) of 20.6 µM, a TGI (COLO 205 colon) of 47.8 µM and a GI50 (HCC-2998 colon) of 15.6 µM. The TGI (HCC-2998 colon) was 30.7 µM, the GI50 (OVCAR-3 ovarian) was 11.3 µM and the TGI (OVCAR-3 ovarian) was 29.4 µM. The GI50 (CAKI-1 renal) was 21.1 µM, the TGI (CAKI-1 renal) was 69.7 µM and the GI50 (SN12C renal) was 17.6 µM. The TGI (SN12C renal) was 59.2 µM, the GI50 (786-0 renal) was 16.8 µM and the TGI (786-0 renal) was 34.3 µM. It also gave a GI50 (UACC-62 melanoma) of 13.8 µM, a TGI (UACC-62 melanoma) of 30 µM and a GI50 (HOP-92 NSCLC) of 7.62 µM. It also gave a TGI (HOP-92 NSCLC) of 26.1 µM, a GI50 (SK-MEL-28 melanoma) of 16.9 µM and a TGI (SK-MEL-28 melanoma) of 42.6 µM. The GI50 (HL-60(TB) leukemia) was 22.7 µM, the TGI (HL-60(TB) leukemia) was 54.5 µM and the GI50 (TK-10 renal) was 19.7 µM. It also gave a TGI (TK-10 renal) of 88.4 µM, a GI50 (OVCAR-8 ovarian) of 26.9 µM and a TGI (OVCAR-8 ovarian) greater than 100 µM. It also gave a GI50 (MDA-MB-231 breast) of 14.5 µM, a TGI (MDA-MB-231 breast) of 45.1 µM and a GI50 (DU-145 prostate) of 22.4 µM. It also gave a TGI (DU-145 prostate) of 71.8 µM, a GI50 (SK-MEL-2 melanoma) of 23.6 µM and a TGI (SK-MEL-2 melanoma) of 63.5 µM. The GI50 (NCI/ADR-RES ovarian) was 15 µM, the TGI (NCI/ADR-RES ovarian) was 40.5 µM and the GI50 (SW-620 colon) was 15.1 µM. The TGI (SW-620 colon) was 35.7 µM, the GI50 (NCI-H522 lung) was 15.2 µM and the TGI (NCI-H522 lung) was 36.4 µM. It also gave a GI50 (IGROV1 ovarian) of 17.2 µM, a TGI (IGROV1 ovarian) of 62.3 µM and a GI50 (HCT-15 colon) of 7.35 µM. It also gave a TGI (HCT-15 colon) of 22.5 µM.
